# In paper PMC4113456, “Atypical Signaling and Functional Desensitization Response of MAS Receptor to Peptide Ligands” (PLoS ONE, 2014):
# Changes are numbered by the printed parent chain.
# How the values were obtained:
# MAS F112A mutant = molecular target: T1, MAS F112A mutant (Homo sapiens, UniProt P04201, F112A); assay: Calcium assay, F112A MAS mutant stable cell line; assay type: cell-based
# T1 construct: expressed in transfected cells
# T1 sequence (P04201 1-325 F112A): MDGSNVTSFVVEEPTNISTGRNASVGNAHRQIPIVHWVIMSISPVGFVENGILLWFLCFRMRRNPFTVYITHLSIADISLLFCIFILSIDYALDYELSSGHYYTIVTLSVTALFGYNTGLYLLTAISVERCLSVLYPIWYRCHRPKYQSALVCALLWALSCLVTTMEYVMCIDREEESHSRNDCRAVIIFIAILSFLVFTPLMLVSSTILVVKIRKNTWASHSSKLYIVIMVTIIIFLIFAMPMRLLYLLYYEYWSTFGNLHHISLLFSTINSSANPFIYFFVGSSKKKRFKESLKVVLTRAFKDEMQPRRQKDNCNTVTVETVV
# Description: The assay was performed using FLIPR Calcium 5 assay kit (Molecular Devices, Sunnyvale, CA). For calcium measurements, cells at a density of 125,000 cells/well in 100 µl medium were seeded onto a 96-well clear bottom black cell culture plate that was pre-coated with poly-L-lysine. In the calcium assays the cell density of 125,000 cells/well was consistently maintained to minimize variability between independent experiments. The cells were seeded in induction media to induce MAS expression or in complete media for negative controls. The plate was maintained in a cell culture incubator for 26–28 h. The cells were then serum starved for 2 h by replacing the medium with 100 µl of serum free DMEM. In the case of pre-treatment with pan-inhibitor of G protein signaling, BIM-46187, the cells were initially serum starved for 1 h by replacing the medium with 50 µl of serum free DMEM. After 1 h, 50 µl of BIM-46187 was added to the cells to a final concentration of 25 µM and treated for another 1 h. Following serum starvation, 100 µl of calcium sensitive dye along with 2x (2.5 mM final concentration) probenecid (Life Technologies, Grand Island, NY) was added to the cells. During this step, AR-inverse agonist or BIM-46187 was also added at desired concentrations to the calcium dye preparation in case of experiments where cells were pre-treated with these inhibitors. The cells were maintained for one hour in the cell culture incubator. […] The instrument was programmed in FLEX mode to add ligands (50 µl at 5x concentration) to the cells and to monitor the fluorescence before and after adding the ligands. […]
# The kinetic parameter t1/2 (time taken to reach half of the maximum response) was determined using SoftMax Pro software supplied with the FlexStation 3 instrument (Molecular Devices, Sunnyvale, CA).
# For re-stimulation assays, the data is expressed as the percentage of maximum agonist stimulation to allow for ready comparison between individual experiments. […]
# MAS [1] = molecular target: T2, MAS (Homo sapiens, UniProt P04201); assay: Intracellular cAMP assay, induced MAS cells; assay type: cell-based; conditions: data not shown
# T2 construct: expressed in transfected cells
# T2 sequence (P04201 1-325): T1 sequence (P04201 1-325 F112A) with A112F
# Description: Measurement of intracellular cAMP. The intracellular cAMP levels were measured using CatchPoint™ cAMP Fluorescent assay kit from Molecular devices (Molecular Devices, Sunnyvale, CA). For the cAMP assay, the cells were plated at a density of 1.25 million cells/well in a six-well plate. The cells were maintained in a cell culture incubator and induced the following day with doxycycline. The cells were serum starved for 2h following the induction for 26-28h. At this point the serum free media was replaced with 1ml of 3-Isobutyl-1-methylxanthine (Sigma-Aldrich, St. Louis, MO) at 1mM concentration for 15min at 37°C. Following this, 250µl of ligands were added at 5x concentration to the wells and incubated for another 15min at 37°C. The plates were then immediately transferred to ice and the cells were lysed with 150µl of lysis buffer provided with kit. The cAMP levels in the lysed samples were measured according to the protocol provided by the supplier.
# [2] = Solubility of ligand stock in assay buffer; assay type: physicochemical; conditions: 5x ligand stock in D-PBS, at greater than 50 µM
# MAS [3] = molecular target: T2, MAS; design: method as in ref [9] (a number printed in a supplementary file, which may have a reference list of its own: not looked up in the article's list); conditions: ref [9], read-out: EC50 (IP1 assay); cited from earlier work
# MAS [4] = test system: MAS; design: method as in ref [9] (a number printed in a supplementary file, which may have a reference list of its own: not looked up in the article's list); conditions: Rat MAS; ref [9]; read-out: EC50 (cAMP assay); cited from earlier work
compound,measurement,setting,value
COc1cc([N+](=O)[O-])ccc1S(=O)(=O)N1CC(CN2CCN(c3ccccn3)CC2)C(c2cccc(F)c2)C1 (stereo not drawn) [AR-agonist],"EC50, Calcium assay",MAS F112A mutant,cbd
same,"t1/2, Calcium assay",MAS F112A mutant,cbd
same,Effect on cAMP levels,MAS [1],decreased cAMP levels
same,Solubility,[2],solubility issues
same,EC50,MAS [3],350 nM
same,EC50,MAS [4],1710 nM
